Results: patent EP1632243A1 (priority 2003, dated 2004)
Values after ≈ are worked out from the molar mass of the structure shown. Like-named read-outs stand apart in the source and are kept apart here. Residues, ends and D or L forms follow the SMILES beside them.

Legend:
MT-4 cells = experiment: Cytotoxicity to MT-4 cells, MTT method; type: cell-based; conditions: 12000ng/ml to 24ng/ml, 6 days
Description: Then test drugs were added. […] Cell growth was subsequently determined by the MTT method.

in vitro = conditions: human, 293 cells

CC(C)C[C@H](NC(=O)[C@H](CCCCN)NC(=O)[C@@H](N)Cc1ccc(O)cc1)C(=O)N1CCC[C@H]1C(=O)NCC(=O)N[C@@H](Cc1c[nH]cn1)C(=O)N[C@@H](Cc1c[nH]cn1)C(=O)N[C@@H](Cc1c[nH]cn1)C(=O)N[C@@H](Cc1c[nH]cn1)C(=O)N[C@@H](Cc1ccc(O)cc1)C(=O)N[C@@H](CCCNC(=N)N)C(=O)N1CCC[C@H]1C(=O)O [AP-9] (H-YKLPGHHHHYRP-OH; N-terminus and C-terminus assumed)
cell growth (MT-4 cells): not affected
inhibition of coronavirus in 293 cell cultures (No.04 coronavirus): capable of inhibiting coronavirus
treatment index (TI) (No.04 coronavirus): 32
half-inhibitory concentration (IC50) (No.04 coronavirus; 24 h): 15.6 ± 0 µg/mL
minimum inhibitory concentration (MIC) (No.04 coronavirus; 24 h): 31.3 ± 0 µg/mL (≈ 0.0203 mM)

Nc1nc(O)c2ncn(COC(CO)CO)c2n1 [Ganciclovir, ganciclovir]
CC50 at 144 h (in vitro): > 6000 µg/mL
MNTC at 144 h (in vitro): > 6000 µg/mL

AP-1: high-affinity peptide antagonist targeting HAb18G/CD147, amino acid sequence SEQ ID NO:3 (MTHDPVISLPTT)
cell growth (MT-4 cells): not affected
half-inhibitory concentration (IC50) (No.04 coronavirus): 31.25 ± 0 µg/mL
inhibition of coronavirus in 293 cell cultures (No.04 coronavirus): capable of inhibiting coronavirus
minimum inhibitory concentration (MIC) (No.04 coronavirus): 62.25 ± 0 µg/mL
treatment index (TI) (No.04 coronavirus): 16

AP-6: high-affinity peptide antagonist targeting HAb18G/CD147, amino acid sequence SEQ ID NO:8 (YPFHHKHWHRPN)
cell growth (MT-4 cells): not affected
half-inhibitory concentration (IC50) (No.04 coronavirus): 31.25 ± 0 µg/mL
inhibition of coronavirus in 293 cell cultures (No.04 coronavirus): capable of inhibiting coronavirus
minimum inhibitory concentration (MIC) (No.04 coronavirus): 62.25 ± 0 µg/mL
treatment index (TI) (No.04 coronavirus): 16
